Results: US11413328B2, “Methods for treating inflammatory conditions of the lungs” (priority 2016, dated 2022)
Bridges are numbered along the chain shown (N, C = ends). Where no end group is shown, it is not given here.

Experiments:
Format in all cases: in vivo, BALB/c mice
[1] = tested on: murine, infection induced, severe, steroid-insensitive, neutrophilic, allergic airways disease model of asthma; experiment: Differential leucocyte counts in BALF, Ovalbumin/C. muridarum steroid-insensitive asthma model; details: Ova sensitized, C. muridarum infected mice, hBD-2 IN 5 mg/kg day 30, 32, 34
Method: Female 6-8 weeks old BALB/c mice were intraperitoneally (IP) sensitized to ovalbumin 50 μg with the adjuvant alum 1 mg in 200 μL 0.9% saline. Mice were intranasally (IN) challenged with Ova on day 12-13 and day 33-34 (10 μg in 50 μL sterile saline).
Airway inflammation: Differential leucocyte counts were obtained from May-Grunwald Giemsa stained BALF cells, using a light microscope.

[2] = tested on: murine house dust mite/Freunds complete adjuvant driven model of allergic asthma; experiment: Lung resistance and compliance after methacholine, HDM/Freunds adjuvant asthma model (Example 2); details: vs HDM challenged vehicle
Method: Female 7-10 weeks old BALB/c mice were randomly allocated into 7 study groups one day prior to study start and subcutaneously (SC) sensitized to house dust mite (100 μg HDM in 200 μL saline plus Freunds complete adjuvant in 0.9% saline). Mice were then intranasally (IN) challenged with HDM on day 14 (HDM 25 μg in 50 μL of saline). […] The initial dose was administered 60 minutes prior to challenge, and the subsequent doses approximately 6 hours apart. Lung function: Starting 48 hours after HDM challenge, measurements of lung resistance and lung compliance were carried out after methacholine challenge (3.125 MCH1; 6.25 MCH2; 12.5 MCH3 and 25 mg/mL MCH4) by anaesthetized, cannulated mice using DSI's Buxco Finepoint RC system. Data are represented as airway resistance at […] and as dose responsive curves.

[3] = tested on: murine house dust mite/Freunds complete adjuvant driven model of allergic asthma; experiment: Total and differential cell counts in BALF, HDM asthma model (Example 2)
Method: Female 7-10 weeks old BALB/c mice were randomly allocated into 7 study groups one day prior to study start and subcutaneously (SC) sensitized to house dust mite (100 μg HDM in 200 μL saline plus Freunds complete adjuvant in 0.9% saline). Mice were then intranasally (IN) challenged with HDM on day 14 (HDM 25 μg in 50 μL of saline). […] The initial dose was administered 60 minutes prior to challenge, and the subsequent doses approximately 6 hours apart. Airway inflammation: At 48 hours post challenge, bronchoalveolar lavage was performed washing the lungs with 3 volumes of cold PBS (0.4; 0.3 and 0.3 mL, total 1 mL). Total and differential leucocyte cell counts were determined on an automated haematological analyser Sysmex XT-2000iV.

[4] = tested on: IL-1β, TNF-α, IL-6, IL-10 and IFNγ in lung tissue homogenates; experiment: Cytokine ELISA in lung tissue homogenates, HDM asthma model (Example 2); details: vs HDM/vehicle
Method: Female 7-10 weeks old BALB/c mice were randomly allocated into 7 study groups one day prior to study start and subcutaneously (SC) sensitized to house dust mite (100 μg HDM in 200 μL saline plus Freunds complete adjuvant in 0.9% saline). Mice were then intranasally (IN) challenged with HDM on day 14 (HDM 25 μg in 50 μL of saline). […] The initial dose was administered 60 minutes prior to challenge, and the subsequent doses approximately 6 hours apart.
Lung sampling for cytokine analysis: After completion of every BAL, lungs were removed from the thorax, snap frozen in liquid nitrogen and stored frozen at −80 degrees Celsius until analysis of cytokine concentration of IL-1β, TNF-α, IL-6, IL-10 and IFNγ by ELISA.

[5] = tested on: IL-4, IL-5, IL-8 (KC), IL-9 and IL-13 in lung tissue homogenates; experiment: Cytokine ELISA in lung tissue homogenates, HDM asthma model (Example 3)
Method: Treatment regime: Female 7-10 weeks old BALB/c mice randomly allocated into 4 study groups one day prior to study start were subcutaneously (SC) sensitized to house dust mite (100 μg HDM in 200 μL saline plus Freund's complete adjuvant in 0.9% saline). Mice were intranasally (IN) challenged with HDM on day 14 (HDM 25 μg in 50 μL of saline). hBD-2 was administered IN or orally (0.4 mg/kg TID IN; 0.4 mg/kg TID orally, 50 μL phosphate buffered saline) on day 14. The initial dose was administered 60 minutes prior to challenge, and the subsequent doses approximately 6 hours apart.
Lung tissue sampling: Lungs were removed from the thorax, snap frozen in liquid nitrogen and stored frozen at −80 degrees Celsius until analysis of cytokine concentration of IL-4, IL-5, IL-8 (KC), IL-9 and IL-13 by ELISA.
The lungs were exposed and excised by gently opening the thorax and by cutting down either side of the sternum and ribs and trimming back. Lungs from first 6 animals per group were removed from thorax, snap frozen in liquid nitrogen and stored frozen at −80° C. until analysis of cytokine concentration by ELISA.

[6] = tested on: TNF-α, IL-4, IL-5, IL-6, IL-9, IL-13 and IL-33 in lung homogenate; experiment: Cytokine ELISA in lung homogenate, prophylactic treatment in HDM asthma model (Example 9)
Method: Female 7-10 weeks old BALB/c mice were randomly allocated into 5 study groups one day prior to study start and subcutaneously (SC) sensitized to house dust mite (100 μg HDM in 200 μL saline plus Freund's complete adjuvant in 0.9% saline). The mice were treated with hBD-2 orally and intranasally respectively at a dose of 1.2 mg/kg/day (0.4 mg/kg TID) starting on day 12 in the morning and continued TID at approximately 6 hours intervals. The last dose was administered on day 14 one hour prior to challenge. The total number of doses were 8 doses or a total of […] hBD-2. Mice were then intranasally (IN) challenged with HDM on day 14 (HDM 25 μg in 50 μL of saline).
Lung sampling for cytokine analysis: After completion of every BAL, lungs were removed from the thorax, snap frozen in liquid nitrogen and stored frozen at −80 degrees Celsius until analysis of cytokine concentration of TNF-α, IL-4, IL-5, IL-6, IL-9, IL-13 and IL-33 in lung homogenate by ELISA.

[7] = prophylactic intranasal, not statistically significantly different from the control

With “GIGDPVTCLKSGAICHPVFCPRRYKQIGTCGLPGTKCCKKP (disulfide 8-37, 15-30, 20-38 (inferred)) [hBD-2, human beta defensin 2]” the “macrophages in BALF” value [1] was “did not change”, the “neutrophil count in BALF” value [1] was “complete normalization” and the “eosinophils in BALF” value ([1]; DEX IN 2 mg/kg day 32-34) was “did not change”. For the same sequence, the “decrease of pulmonary compliance” value ([2]; intranasal TID on day 14) was “effectively inhibited”, the “increase of airway resistance” value ([2]; intranasal TID on day 14) was “effectively inhibited” and the “decrease of pulmonary compliance” value ([2]; oral 0.4 mg/kg TID on day 14) was “effectively inhibited”. The “increase of airway resistance / AHR” value ([2]; oral, hBD-2 0.4 mg/kg TID, dexamethasone 1 mg/kg BID, day 14) was “effectively inhibited”, the “neutrophil counts in BALF” value ([3]; intranasal 0.4 mg/kg/day TID) was “significantly inhibited” and the “neutrophil counts in BALF” value ([3]; intranasal 1.7 mg/kg/day TID) was “significantly inhibited”. For the same sequence, the “IFN-γ level in lung tissue homogenates” value ([4]; intranasal) was “significant effects”, the “TNF-α level in lung tissue homogenates” value ([4]; intranasal) was “not significantly different from the control” and the “TNF-α level in lung tissue homogenates” value ([4]; oral (hBD2 0.4 mg/kg TID; dexamethasone 1 mg/kg BID)) was “significantly reduced”. For the same sequence, the “IFN-γ level in lung tissue homogenates” value ([4]; oral (hBD-2 0.4 mg/kg TID; dexamethasone 1 mg/kg BID)) was “significant effects”, the “IL-4 level in lung tissue homogenates” value ([5]; intranasal 0.4 mg/kg TID) was “significant effects” and the “IL-5 level in lung tissue homogenates” value ([5]; intranasal 0.4 mg/kg TID) was “significant effects”. The “IL-9 level in lung tissue homogenates” value ([5]; intranasal 0.4 mg/kg TID) was “significant effects”, the “IL-4 level in lung tissue homogenates” value ([5]; oral 0.4 mg/kg TID) was “significant effects” and the “IL-5 level in lung tissue homogenates” value ([5]; oral 0.4 mg/kg TID) was “significant effects”. For the same sequence, the “IL-9 level in lung tissue homogenates” value ([5]; oral 0.4 mg/kg TID) was “significant effects”, the “IL-4 in lung homogenate” value [6, 7] was “trend towards lowering” and the “IL-5 in lung homogenate” value [6, 7] was “trend towards lowering”. For the same sequence, the “IL-6 in lung homogenate” value [6, 7] was “trend towards lowering”, the “IL-9 in lung homogenate” value [6, 7] was “trend towards lowering” and the “IL-13 in lung homogenate” value [6, 7] was “trend towards lowering”. For the same sequence, the “TNF-α in lung homogenate” value [6, 7] was “trend towards lowering” and the “cytokine concentrations in lung tissue homogenates (TNF-α, IL-4, IL-5, IL-6, IL-9 and IL-13)” value ([6]; prophylactic oral administration) was “complete normalization”.
